Assays:
GLUT1 = conditions: cited from earlier work
AKT = conditions: cited from earlier work
A549 lung cancer cells = assay: KRAS-mediated mitochondrial fission in A549 cells; format: cell-based, human; conditions: A549, oncogenic KRAS; 893 5 μM 1 h, leflunomide 50 μM 24 h
Protocol: 3T3-L1 cells were maintained in DMEM with 10% FBS and 1% penicillin-streptomycin until induced to differentiate. 3T3-L1 pre-adipocytes were differentiated as described in (M. P. Valley, et al., Anal. Biochem. 505: 43-50, 2016, the disclosure of which is incorporated herein by reference) with slight modifications. Briefly, pre-adipocytes were grown to confluence. After 2 d, cells were induced with maintenance media containing 500 μM IBMX (15879, Sigma-Aldrich, St. Louis, Mo.), 1 μM dexamethasone (D4902, Sigma-Aldrich), 5 μg/mL bovine insulin (10516, Sigma-Aldrich), and 5 μM troglitazone (50-115-0786, ApexBio). Media was changed every 2-3 d for 7 d. On day 7 post-induction, media was changed to maintenance media+5 μg/mL bovine insulin. On day 9 post-induction, media was changed to maintenance media. Mature adipocytes were used 12-14 d post-induction for all experiments. LSL-KrasG12D mouse embryonic fibroblasts (MEFs) with and without Cre-mediated deletion of the STOP cassette were obtained from David Tuveson (Cold Spring Harbor Laboratory, Cold Spring Harbor N.Y., USA) in 2000. p53^flox/flox MEFs were derived in house (2015) from C57BL/6 mice using standard techniques and immortalized by transient expression of Cre recombinase and deletion of p53. MEFs were cultured and maintained in DMEM with 10% FBS and 1% penicillin-streptomycin. A549 cells were cultured in DMEM with 10% FBS, 1% penicillin-streptomycin and 1% sodium pyruvate. Stock solution of palmitic acid (ACROS Organics, cat # AC129702500) was prepared at 100 mM in ethanol. Palmitate (250 μM) was conjugated to 1% (w/v) fatty-acid free bovine serum albumin (Sigma, A8806) in DMEM at 37° C. for 20 min. For all immunofluorescence assays, 8,000 MEFs were seeded into 8-chamber slides (Cellvis, cat # C8-1.5H-N) 12-16 h before treatment. Cells were pre-treated with sphingolipid-like compound 893 (5 μM in water), myriocin (10 μM in methanol), fumonisin-B1 (30 μM in DMSO), or celastrol (500 nM in DMSO) for 3 h followed by a 3 h treatment with BSA-conjugated palmitate mixture or BSA alone. […]
MEFs were washed twice with PBS and fixed with 4% paraformaldehyde for 10 min at RT. […] NADH/NADPH autofluorescence was detected with 740 nm excitation and 450±50 nm detectors using a Mai Tai two-photon laser. Fluorescence microscopy was performed on a Zeiss LSM 780 confocal using a 63× oil objective with a […] numerical aperture (NA) or using a Nikon TE2000-S inverted epifluorescence microscope with a 100× oil objective (1.3 NA) and a Photometrics CoolSNAP ES2 monochrome CCD camera. […]

CCCCCCCCc1ccc([C@H]2CCN[C@@H]2CO)cc1.Cl [compound 893]
Effect on GLUT1 (GLUT1): down-regulate GLUT1
Effect on AKT activity (AKT): does not reduce AKT activity
Reversal of mitochondrial fragmentation / tubularity in A549 cells (A549 lung cancer cells): rapidly corrected KRAS-mediated mitochondrial fission

Reference: patent publication US20220409617A1, “Drug Formulations and Methods of Treatment for Metabolic Disorders” (The Regents of the University of California, priority 2019, published 2022)
